Earlier results as cited in patent US8241397B2, “Adsorptive gas sampler using ionic nano-droplets” (Honeywell International Inc., priority 2008, dated 2012).

Conditions: water uptake

| SMILES | Solubility of solvent H2O in ionic liquid (% w/w) |
| --- | --- |
| CCCCn1cc[n+](C)c1.O=S(=O)([N-]S(=O)(=O)C(F)(F)F)C(F)(F)F [[C4MIM][TF2N], [C4MIM] bis(trifluoromethylsulfonyl) imide] | 1.17% w/w |
| CCCCCCn1cc[n+](C)c1.O=S(=O)([N-]S(=O)(=O)C(F)(F)F)C(F)(F)F [[C6MIM][TF2N]] | 0.88% w/w |
| CCCCCCCCn1cc[n+](C)c1.O=S(=O)([N-]S(=O)(=O)C(F)(F)F)C(F)(F)F [[C8MIM][TF2N]] | 0.74% w/w |
